Assay [1] deals with T1, Hyaluronan mediated motility receptor (Homo sapiens) (UniProt O75330).
T1 sequence (whole entry): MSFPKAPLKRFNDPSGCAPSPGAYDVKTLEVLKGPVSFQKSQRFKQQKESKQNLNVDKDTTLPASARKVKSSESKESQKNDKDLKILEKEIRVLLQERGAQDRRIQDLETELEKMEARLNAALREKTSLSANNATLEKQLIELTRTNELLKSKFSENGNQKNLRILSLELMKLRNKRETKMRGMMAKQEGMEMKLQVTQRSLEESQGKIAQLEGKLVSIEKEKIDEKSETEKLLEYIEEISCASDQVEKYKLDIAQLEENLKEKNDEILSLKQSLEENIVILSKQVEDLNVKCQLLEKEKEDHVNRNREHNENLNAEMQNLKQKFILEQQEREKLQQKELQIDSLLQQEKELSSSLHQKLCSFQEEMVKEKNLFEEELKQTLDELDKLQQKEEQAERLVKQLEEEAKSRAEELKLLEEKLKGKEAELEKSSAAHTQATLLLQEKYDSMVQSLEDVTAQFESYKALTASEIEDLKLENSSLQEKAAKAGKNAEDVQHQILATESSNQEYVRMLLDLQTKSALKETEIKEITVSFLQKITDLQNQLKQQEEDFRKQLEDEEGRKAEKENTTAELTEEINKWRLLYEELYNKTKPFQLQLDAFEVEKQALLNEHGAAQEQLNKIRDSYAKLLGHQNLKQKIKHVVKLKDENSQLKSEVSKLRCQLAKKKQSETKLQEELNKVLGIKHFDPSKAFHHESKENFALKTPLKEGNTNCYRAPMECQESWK
As to the kind of experiment: Inhibition of C-terminal His-tagged 7 kDa RHAMM (unknown origin) binding to HA assessed as association constant at 1000 nM after 240 secs by SPR method. Background: In SPR one partner is held on a chip, and binding of the other changes the refractive index at the surface.

Assay [2] concerns the target T1, Hyaluronan mediated motility receptor (Homo sapiens). As to the kind of experiment: Inhibition of C-terminal His-tagged 7 kDa RHAMM (unknown origin) binding to HA assessed as association constant at 750 nM after 240 secs by SPR method.
Assay [3] shares this target. As to the kind of experiment: Inhibition of C-terminal His-tagged 7 kDa RHAMM (unknown origin) binding to HA assessed as association constant at 500 nM after 240 secs by SPR method.
The target is the same in assay [4]. Nature of the assay: Inhibition of C-terminal His-tagged 7 kDa RHAMM (unknown origin) binding to HA assessed as association constant at 100 nM after 240 secs by SPR method.
For assay [5] the target is unchanged. Nature of the assay: Inhibition of C-terminal His-tagged 7 kDa RHAMM (unknown origin) binding to HA assessed as association constant at 10 nM after 240 secs by SPR method.
The target is the same in assay [6]. Nature of the assay: Inhibition of C-terminal His-tagged 7 kDa RHAMM (unknown origin) binding to HA assessed as association constant at 1 nM after 240 secs by SPR method.
Assay [7] concerns the target T2, Hyaluronan mediated motility receptor (Homo sapiens, UniProt O75330).
T2 sequence (O75330 whole entry): T1 sequence (whole entry)
As to the kind of experiment: Inhibition of C-terminal His-tagged 7 kDa RHAMM (unknown origin) binding to HA after 240 secs by SPR method.

Assay [8] deals with T2, Hyaluronan mediated motility receptor. Nature of the assay: Inhibition of recombinant RHAMM (unknown origin) binding to HA after 240 secs by SPR method.
Assay [9] addresses T1, Hyaluronan mediated motility receptor (Homo sapiens). As to the kind of experiment: Inhibition of C-terminal His-tagged 7 kDa RHAMM (unknown origin) binding to HA at 1 to 1000 nM after 240 secs by SPR method.

The text below walks through data of ChEMBL document CHEMBL4152371, “A truncated RHAMM protein for discovering novel therapeutic peptides” (Bioorg Med Chem, 2018).

Activity calls are given as the source filed them. The rule behind the calls is not given here.

The Kd is the constant that tells how readily two partners part at equilibrium. As to H-FTEAESNMNDLV-NH2, the K stood at 2 ×10⁴ /M.s in assay [1]; 3.5 ×10⁴ /M.s in assay [2]; 4.9 ×10⁴ /M.s in assay [3]; 0.1 ×10⁴ /M.s in assay [4]; 0.5 ×10⁴ /M.s in [5]; 0.8 ×10⁴ /M.s in [6]. Moreover, the dissociation constant Kd in assay [7] amounted to 20.9 nM; in assay [8], 30.2 nM.
Consider H-EEDFGEEAEEEA-NH2, for which the K was 4 ×10⁴ /M.s in [1]; 3.3 ×10⁴ /M.s in assay [2]; 3 ×10⁴ /M.s in [3]; 1.4 ×10⁴ /M.s in assay [4]; 2.3 ×10⁴ /M.s in [5]; 5.7 ×10⁴ /M.s in assay [6]. The Kd was 202 nM in [7] and 32.6 nM in [8].
H-GEFEEEAEEEVA-NH2: the K in assay [1] amounted to 1.6 ×10⁴ /M.s; in assay [2], 1.2 ×10⁴ /M.s; in assay [3], 1 ×10⁴ /M.s; in assay [4] it was 1.5 ×10⁴ /M.s; in [5] it was 0.22 ×10⁴ /M.s; in assay [6], 0.48 ×10⁴ /M.s. The values for the Kd in assay [7] and in [8] were 265 nM and 130 nM, respectively.
For the substance H-GEFSEAREDMAA-NH2, the inhibition entry in assay [9] was “inactive”.
As to H-VEGEGEEEGEEY-NH2, the K in assay [1] came to 4.1 ×10⁴ /M.s; in assay [2] it was 5 ×10⁴ /M.s; in assay [3], 5.8 ×10⁴ /M.s; in assay [4], 0.2 ×10⁴ /M.s; in assay [5], 1.6 ×10⁴ /M.s; in [6] it was 0.7 ×10⁴ /M.s. Moreover, the Kd in assay [7] was 43.3 nM; in assay [8], 24.2 nM.
As to H-EAFEDEEEEIDG-NH2, the K in assay [1] came out at 3.4 ×10⁴ /M.s; in assay [2], 2.9 ×10⁴ /M.s; in [3] it was 0.9 ×10⁴ /M.s; in assay [4], 3.1 ×10⁴ /M.s; in assay [5], 3.1 ×10⁴ /M.s; in assay [6], 3.7 ×10⁴ /M.s. Besides, the results for the Kd in assay [7] and in [8] were 289 nM and 211 nM, respectively.
Turning to H-SVEAEAEEGEEY-NH2, the K was found to be 1.3 ×10⁴ /M.s in assay [1]; 1.9 ×10⁴ /M.s in [2]; 2.3 ×10⁴ /M.s in assay [3]; 1.4 ×10⁴ /M.s in assay [4]; 0.16 ×10⁴ /M.s in assay [5]; 0.02 ×10⁴ /M.s in assay [6]. Besides, the Kd was determined as 31.9 nM in [7] and 331 nM in [8].
